Assay results taken from PMC3277864 (Molecular Pharmaceutics, 2011).
Where a SMILES comes first, the peptide text is derived from it. [ ]: non-standard residue; d: D form. The star is where a group is joined. Dolaproine = CO[C@@H]([C@@H]1CCCN1)[C@@H](C)C(=O)O; Dil = CC[C@H](C)[C@H](NC)[C@@H](CC(=O)O)OC; X1 = C[C@@H](N*)[C@@H](O)c1ccccc1; NMeV = CN[C@H](C(=O)O)C(C)C

Tests used:
4T1 mammary carcinoma = details: murine breast cancer 4T1 model, 0.5 mg/kg; cited from earlier work
MDA-MB-435 cells [1] = test: Cytotoxicity assay; format: cell-based, human; details: 48 hrs incubation
HEK-293L cells = test: Cytotoxicity assay; format: cell-based, human; details: 48 hrs incubation
MDA-MB-435 cells [2] = details: 72 hrs incubation period; cited from earlier work
BALB/c mice = test: Gross toxicity of mice; format: in vivo, mouse

Q: Which “Animal death in 4T1 study” value (4T1 mammary carcinoma) does the source give for `CC[C@H](C)[C@@H]([C@@H](CC(=O)N1CCC[C@H]1[C@H](OC)[C@@H](C)C(=O)N[C@H](C)[C@@H](O)c1ccccc1)OC)N(C)C(=O)[C@@H](NC(=O)[C@@H](NC)C(C)C)C(C)C` [MMAE, 1, monomethylauristatin E] (H-[NMeV]V[Dil][Dolaproine]-X1) here?
A: all animals died

Q: What about the “In vitro cytotoxicity (comparison in words)” value (MDA-MB-435 cells [1]) of the same molecule?
A: more potent than the prodrugs 3 and 8

Q: What about the “In vitro cytotoxicity (comparison in words)” value (HEK-293L cells) of the same molecule?
A: more potent than the prodrugs 3 and 8

Q: What about the “Activities to MDA-MB-435 cells” value (MDA-MB-435 cells [2]) of the same molecule?
A: subnanomolar to low nanomolar activities

Q: And the “Dose beyond which found considerably toxic to mice” value (BALB/c mice)?
A: 0.1 mg/kg

Q: What about the “Death (%)” value (BALB/c mice; i.p. 5x, dose 0.1 mg/kg) of the same molecule?
A: 20%

Q: What about the “Wt. loss (%)” value (BALB/c mice; i.p. 5x, dose 0.1 mg/kg, weighed for 3 weeks) of the same molecule?
A: 33.4%

Q: And the “Death (%)” value (BALB/c mice; i.p. 5x, dose 0.5 mg/kg)?
A: 100%

Q: And the “Death (%)” value (BALB/c mice; i.p. 5x, dose 1.5 mg/kg)?
A: 100%
